Source: patent publication US12594282B2, “Use of small molecule compounds in the treatment of diseases mediated by lung epithelial cell injury and/or vascular endothelial cell injury” (Guangzhou Cellprotek Pharmaceutical Co., Ltd., priority 2020, dated 2026)

Test system: acute hypobaric hypoxia-induced lung injury
Assay: Acute hypobaric hypoxia-induced lung injury in Macaca fascicularis (HE pathology)
Assay type: in vivo
Conditions: 7500 meters for 48 hours
Procedure: Twenty-four healthy male Macaca fascicularis, 6 to 6.5 years-old, weighted 6.5-7.5 kg, were purchased from Kangda Laboratory Animal Center, Gaoyao City, Guangdong, China, in which 17 male Macaca fascicularis were divided into 3 groups, as shown in the following table:
Three Macaca fascicularis housed in the animal room were randomly selected each time. For each animal, 10 ml of blood was collected, and 10 ml of glucose normal saline was injected intravenously, and marked. The animals were then housed in a low-pressure chamber for 1 day to acclimate to the experimental environment. In the acute hypobaric hypoxia group, the altitude was simulated to 3000 meters at a speed of 3 m/s; after the animals stayed in the low-pressure chamber at a simulated altitude of 3000 meters for 30 minutes, 10 ml of blood was taken from each animal and 10 ml of glucose saline was injected intravenously; the altitude was then simulated to 4500 meters at a speed of 3 m/s; after the animals stayed in the low-pressure chamber at a simulated altitude of 4500 meters for 30 minutes, 10 ml of blood was taken from each animal and 10 ml of glucose saline was injected intravenously; the altitude was simulated to 6000 meters at a speed of 3 m/s; after the animals stayed in the low-pressure chamber at a simulated altitude of 6000 meters for 30 minutes, 10 ml of blood was taken from each animal and 10 ml of glucose saline was injected intravenously; the altitude was simulated to 7500 meters at a speed of 2 m/s; after the animals stayed at a simulated altitude of 7500 meters in the low-pressure chamber for 24 hours, the altitude was lowered to 6000 meters at a speed of 3 m/s, and 10 ml of blood was taken from each animal and 10 ml of glucose saline was injected intravenously; the altitude was simulated to 7500 meters at a speed of 2 m/s; after staying at 7500 meters for 48 hours, the altitude was lowered to 6000 meters at a speed of 3 m/s, the animals were anesthetized (0.06 ml/kg ketamine hydrochloride injection, 0.02 ml/kg xylazine hydrochloride injection), and sacrificed by carotid bloodletting, and dissected and subject to sampling, and the samples were then fixed. The Macaca fascicularis in the normobaric normoxia control group were anesthetized (0.06 ml/kg ketamine hydrochloride injection, 0.02 ml/kg xylazine hydrochloride injection) in the plain (an altitude of 352 meters), then sacrificed by carotid bloodletting, and dissected and subject to sampling, and the samples were then fixed. […]

**Q.** For `C[C@@]12CCCC1C1C[C@@H](O)[C@]3(O)C[C@@H](O)CC[C@]3(C)C1CC2` (stereo partly drawn) [YC-6, 5α-androst-3β,5,6β-triol], which “alveolar septal thickening caused by acute hypobaric hypoxia” value (100 mg/kg/two days (i.v. solution and i.m. sustained-release formulation)) is on record?
**A.** significantly reduced the alveolar septal thickening injury

**Q.** And the “fibrous hyperplasia of alveolar septa, protein hyaline membrane formation and erythrocyte leakage into the alveolar space” value (100 mg/kg/two days)?
**A.** no such obvious changes were observed

**Q.** And the “inflammatory infiltration and shedding of damaged lung epithelial cells” value (100 mg/kg/two days)?
**A.** no obvious inflammatory infiltration and shedding of damaged lung epithelial cells were observed

**Q.** And the “pulmonary vascular congestion and swelling” value (100 mg/kg/two days)?
**A.** significantly inhibited pulmonary vascular congestion and swelling
